Data set [1] concerns the target T1, mCCR4 (Mus musculus, UniProt P51680).
T1 sequence (P51680 1-360): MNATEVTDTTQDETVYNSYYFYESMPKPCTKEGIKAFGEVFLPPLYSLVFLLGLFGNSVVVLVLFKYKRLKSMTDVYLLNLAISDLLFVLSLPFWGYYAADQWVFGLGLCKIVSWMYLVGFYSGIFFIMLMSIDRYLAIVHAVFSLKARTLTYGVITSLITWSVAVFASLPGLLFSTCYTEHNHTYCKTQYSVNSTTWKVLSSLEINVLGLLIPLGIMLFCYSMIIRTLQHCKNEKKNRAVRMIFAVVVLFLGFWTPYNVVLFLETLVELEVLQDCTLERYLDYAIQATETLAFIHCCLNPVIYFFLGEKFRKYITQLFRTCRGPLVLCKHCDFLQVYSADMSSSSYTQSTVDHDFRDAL
Nature of the data set: 125I-CCL17 binding, mouse CCR4 cells. Particulars: Mouse mCCR4-293 cells, buffer.

Data set [2] concerns the target T2, CCR4 (Homo sapiens, UniProt P51679).
T2 sequence (P51679 1-360): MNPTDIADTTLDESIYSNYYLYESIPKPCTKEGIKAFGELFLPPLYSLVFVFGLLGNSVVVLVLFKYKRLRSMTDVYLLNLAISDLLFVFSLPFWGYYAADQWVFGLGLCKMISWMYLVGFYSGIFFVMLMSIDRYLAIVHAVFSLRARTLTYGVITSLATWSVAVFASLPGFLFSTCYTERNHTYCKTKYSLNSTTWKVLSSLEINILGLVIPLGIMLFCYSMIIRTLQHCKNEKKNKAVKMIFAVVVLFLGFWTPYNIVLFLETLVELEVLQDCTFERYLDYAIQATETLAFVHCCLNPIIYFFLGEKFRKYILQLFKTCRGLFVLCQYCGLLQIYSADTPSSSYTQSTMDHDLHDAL
As to the kind of experiment: 125I-CCL17 binding, human cells. Particulars: buffer.

In data set [3] the target is T1, mCCR4. Nature of the data set: CCL22 chemotaxis, mouse CCR4 cells. The class given is cell-based. Conditions: Mouse mCCR4-Baf3 cells.
The target in another data set is T3, CCR6 (Homo sapiens, UniProt P51684).
T3 sequence (P51684 1-374): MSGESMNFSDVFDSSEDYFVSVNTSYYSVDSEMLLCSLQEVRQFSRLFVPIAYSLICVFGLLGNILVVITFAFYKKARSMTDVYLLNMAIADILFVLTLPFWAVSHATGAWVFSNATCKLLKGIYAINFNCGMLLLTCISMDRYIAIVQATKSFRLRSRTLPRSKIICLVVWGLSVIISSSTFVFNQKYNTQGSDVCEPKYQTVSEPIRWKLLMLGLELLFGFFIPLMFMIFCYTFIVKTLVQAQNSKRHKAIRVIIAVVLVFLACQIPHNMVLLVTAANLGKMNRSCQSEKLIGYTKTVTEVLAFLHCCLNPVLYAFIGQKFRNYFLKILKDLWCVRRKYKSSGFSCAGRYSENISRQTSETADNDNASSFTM
As to the kind of experiment: Compound 1 selectivity panel, buffer IC50. The class given is cell-based. Particulars: Receptor CCR6. Here is the method: (§1) The selectivity of Compound 1 was tested by determining the IC50 value against a diverse panel of receptors, enzymes, and ion channels. […] See, Table 1.

The target in data set [4] is T2, CCR4. Nature of the data set: Compound 1 selectivity panel, buffer IC50. The class given is cell-based. The protocol:
as §1

A short description of data set [5]: Plasma compound concentrations at trough in the KCM study. The class given is in vivo, mice. Conditions: day 12, KCM model.
Another data set deals with KCM cells. As to the kind of experiment: KCM orthotopic pancreatic tumor model. The class given is in vivo, mice. An excerpt:
The subcutaneous CT26 colon cancer model and the orthotopic KCM pancreatic cancer model were used to assess the effects of a CCR4 inhibitor, Compound 1, in combination with anti-CTLA-4 antibody (BioXcell: anti-mouse CTLA-4 (Clone: 9H10), raised in Syrian Hamster, purified with protein G). CT26 cells were implanted into the flanks of 9 week female Balb/c mice. Mice were randomized into study groups based on the tumor sizes on day 6, and dosing of both Compound 1 and anti-CTLA-4 started on day 7. For the orthotopic pancreatic cancer model, KCM cells were implanted directly into the pancreas, and dosing of Compound 1 and anti-CTLA-4 also began on day 7. Compound 1 was dosed orally twice daily at 30 mg/kg, and anti-CTLA-4 was dosed IP on days 7, 11 and 15 at 100 μg/mouse.
As briefly described in Example 1, above, a KCM pancreatic cancer model was used to assess the effectiveness of a CCR4 inhibitor in combination with an anti-CTLA-4 antibody. The mice were broken into 4 groups (n=12 each group): isotype antibody+Vehicle; Isotype Antibody+Compound 1; anti-CTLA-4+Vehicle; anti-CTLA-4+Compound 1. The mice used were 7-8 week old C57BL/6 female mice. […]
After completion of the study, the tumor/pancreases weight for each group was measured. […]
Changes in suppressive immune cell populations were also measured at the completion of this study. […] Pancreas from sham-operated mice were processed and analyzed. […]

Data set [6] addresses T2, CCR4. Nature of the data set: CCL22 chemotaxis, human cells. It counts as cell-based.

A value given as a limit tells only on which side of the number the result lay.

For orientation: IC50 means the concentration that gives 50% inhibition. Lower therefore signals greater potency in that assay. Consider `C[C@@H](Nc1cc(C2CCN([C@H]3CCCN(CCC(=O)O)C3)CC2)ccc1Cl)c1ccc(Cl)cc1Cl` [Compound 1], for which the half-inhibitory concentration (IC50) is 27 nM on mCCR4 [1]; 23 nM on CCR4 [2] (Human CEM cells); 37 nM at CCR4 [2] (Human lymphocytes); greater than 10000 nM against CCR6; 2 nM against CCR4 [4] (Receptor CCR4, buffer). Also, the “Chemotaxis A2” value on mCCR4 [3] (100% serum) worked out at 60 nM; on mCCR4 [3] (buffer), 4 nM; on CCR4 [6] (Human CEM cells, 100% serum) it was 20 nM; at CCR4 [6] (Human CEM cells, buffer), 2 nM; at CCR4 [6] (Human lymphocytes, 100% serum), 20 nM; on CCR4 [6] (Human lymphocytes, buffer), 10 nM. The “Selectivity against a diverse panel of receptors, enzymes, and ion channels” value at CCR4 [4] (in words) is given as “highly specific for CCR4”. Further, the “Plasma compound concentrations at trough” value in data set [5] is “Adequate compound levels”. In addition, the Spleen weight entry in the data set on KCM cells is reported as “reduced”. For the same compound, the “Tumor burden (tumor + pancreas weight)” value in the data set with KCM cells (Compound 1 bid, anti-CTLA-4 100 μg i.p.) is “significantly reduced tumor burden”.

The values are drawn from patent US12011439B2, “Combination therapy using C—C chemokine receptor 4 (CCR4) antagonists and one or more immune checkpoint inhibitors” (CHEMOCENTRYX, INC., priority 2018, dated 2024).
